Test results as given in ChEMBL document CHEMBL3751761, “Analogues of boswellic acids as inhibitors of pro-inflammatory cytokines TNF-α and IL-6” (Bioorg Med Chem Lett, 2016).

Assays:
PBMC [1] = assay: Anti-inflammatory activity in human PBMC assessed as inhibition of LPS-induced IL-6 expression at 10 uM after 5 hrs; assay type: functional
PBMC [2] = assay: Anti-inflammatory activity in human PBMC assessed as inhibition of LPS-induced TNFalpha expression at 10 uM after 5 hrs; assay type: functional
Mus musculus [3] = assay: Anti-inflammatory activity in BALB/c mouse assessed as inhibition of LPS-induced TNFalpha expression at 10 mg/kg, po pre-treated for 1 hr followed by LPS administration measured 2.5 hrs after LPS challenge by ELISA; assay type: functional
Mus musculus [4] = assay: Anti-inflammatory activity in BALB/c mouse assessed as inhibition of LPS-induced IL-6 expression at 10 mg/kg, po pre-treated for 1 hr followed by LPS administration measured 2.5 hrs after LPS challenge by ELISA; assay type: functional
[5] = Cytotoxicity against human FR2 cells assessed as cell viability at 10 uM after 48 hrs by MTT assay; assay type: cell-based; settings: read-out: Activity

`CCC(=O)O[C@@H]1CC[C@@]2(C)[C@@H](CC[C@]3(C)[C@@H]2CC=C2[C@@H]4[C@@H](C)[C@H](C)CC[C@]4(C)CC[C@]23C)[C@@]1(C)C(=O)O` gave an inhibition at 10 µM (PBMC [1]) of 43.5% and an inhibition at 10 µM (PBMC [2]) of 40%.
Work on `CCCC(=O)O[C@@H]1CC[C@@]2(C)[C@@H](CC[C@]3(C)[C@@H]2CC=C2[C@@H]4[C@@H](C)[C@H](C)CC[C@]4(C)CC[C@]23C)[C@@]1(C)C(=O)O` yielded an inhibition at 10 µM (PBMC [1]) of 34.8% and an inhibition at 10 µM (PBMC [2]) of 41.4%.
With `CCC(=O)O[C@@H]1CC[C@@]2(C)[C@@H](CC[C@]3(C)[C@@H]2C(=O)C=C2[C@@H]4[C@@H](C)[C@H](C)CC[C@]4(C)CC[C@]23C)[C@@]1(C)C(=O)O` the inhibition at 10 µM (PBMC [1]) was 36.6% and the inhibition at 10 µM (PBMC [2]) was 38.9%.
Work on `CCCC(=O)O[C@@H]1CC[C@@]2(C)[C@@H](CC[C@]3(C)[C@@H]2C(=O)C=C2[C@@H]4[C@@H](C)[C@H](C)CC[C@]4(C)CC[C@]23C)[C@@]1(C)C(=O)O` yielded an inhibition at 10 µM (PBMC [1]) of 22.5% and an inhibition at 10 µM (PBMC [2]) of 34.1%.
Compound `CCCC(=O)O[C@H]1CC[C@@]2(C)[C@@H](CC[C@]3(C)[C@@H]2CC=C2[C@@H]4[C@@H](C)[C@H](C)CC[C@]4(C)CC[C@]23C)[C@@]1(C)C(=O)O` has an inhibition at 10 µM (PBMC [1]) of 39.5%, an inhibition in vivo at 10 mg/kg (Mus musculus [3]) of 58.7% and an inhibition in vivo at 10 mg/kg (Mus musculus [4]) of 51.6%. For the same compound, the inhibition at 10 µM (PBMC [2]) was 68.9% and the viability at 48 h, 10 µM [5] was 83%.
In the case of `CCCC(=O)O[C@H]1CC[C@@]2(C)[C@@H](CC[C@]3(C)[C@@H]2C(=O)C=C2[C@@H]4[C@@H](C)[C@H](C)CC[C@]4(C)CC[C@]23C)[C@@]1(C)C(=O)O`, the inhibition at 10 µM (PBMC [1]) is reported as 52.3%, the inhibition in vivo at 10 mg/kg (Mus musculus [3]) is reported as 37.8% and the inhibition in vivo at 10 mg/kg (Mus musculus [4]) is reported as 48.5%. The inhibition at 10 µM (PBMC [2]) was 44.2% and the viability at 48 h, 10 µM [5] was 80%.
With `C[C@H]1[C@H](C)CC[C@]2(C)CC[C@]3(C)C(=CC(=O)[C@@H]4[C@@]5(C)CC[C@H](O)[C@](C)(C(=O)O)[C@@H]5CC[C@]43C)[C@H]12` the inhibition at 10 µM (PBMC [1]) was 49.6%, the inhibition in vivo at 10 mg/kg (Mus musculus [3]) was 71.3% and the inhibition in vivo at 10 mg/kg (Mus musculus [4]) was 28.9%. It also gave an inhibition at 10 µM (PBMC [2]) of 53.5% and a viability at 48 h, 10 µM [5] of 100%.
For `CC(=O)O[C@H]1CC[C@@]2(C)[C@@H](CC[C@]3(C)[C@@H]2CC=C2[C@@H]4[C@@H](C)[C@H](C)CC[C@]4(C)CC[C@]23C)[C@@]1(C)C(=O)O`, the inhibition at 10 µM (PBMC [1]) was 51.1%, the inhibition in vivo at 10 mg/kg (Mus musculus [4]) was 19.5% and the inhibition at 10 µM (PBMC [2]) was 57.9%. For the same compound, the viability at 48 h, 10 µM [5] was 99%.
With `CC(=O)O[C@H]1CC[C@@]2(C)[C@@H](CC[C@]3(C)[C@@H]2C(=O)C=C2[C@@H]4[C@@H](C)[C@H](C)CC[C@]4(C)CC[C@]23C)[C@@]1(C)C(=O)O` the inhibition at 10 µM (PBMC [1]) was 44.7% and the inhibition at 10 µM (PBMC [2]) was 39.6%.
For `CC(=O)O[C@@H]1CC[C@@]2(C)[C@@H](CC[C@]3(C)[C@@H]2CC=C2[C@@H]4[C@@H](C)[C@H](C)CC[C@]4(C)CC[C@]23C)[C@@]1(C)C(=O)O`, the inhibition at 10 µM (PBMC [2]) was 43.8%.
With `CC(=O)O[C@@H]1CC[C@@]2(C)[C@@H](CC[C@]3(C)[C@@H]2CC=C2[C@@H]4[C@@H](C)[C@H](C)CC[C@]4(C)CC[C@]23C)[C@@]1(C)N=C=O` the inhibition at 10 µM (PBMC [2]) was 40.6%.
Compound `CC(=O)O[C@@H]1CC[C@]2(C)[C@H]3CC=C4[C@@H]5[C@@H](C)[C@H](C)CC[C@]5(C)CC[C@@]4(C)[C@]3(C)CC[C@H]2[C@@]1(C)N` has an inhibition at 10 µM (PBMC [1]) of 63.3%, an inhibition in vivo at 10 mg/kg (Mus musculus [3]) of 39.5% and an inhibition in vivo at 10 mg/kg (Mus musculus [4]) of 41.4%. It also gave an inhibition at 10 µM (PBMC [2]) of 68.3% and a viability at 48 h, 10 µM [5] of 100%.
In the case of `CC(=O)O[C@@H]1CC[C@]2(C)[C@H]3C(=O)C=C4[C@@H]5[C@@H](C)[C@H](C)CC[C@]5(C)CC[C@@]4(C)[C@]3(C)CC[C@H]2[C@@]1(C)N`, the inhibition at 10 µM (PBMC [1]) is reported as 58.4%, the inhibition in vivo at 10 mg/kg (Mus musculus [3]) is reported as 53.3% and the inhibition in vivo at 10 mg/kg (Mus musculus [4]) is reported as 39.1%. It also gave an inhibition at 10 µM (PBMC [2]) of 78.9% and a viability at 48 h, 10 µM [5] of 97%.
Compound `CCCCCC(=O)O[C@H]1CC[C@@]2(C)[C@@H](CC[C@]3(C)[C@@H]2C(=O)C=C2[C@@H]4[C@@H](C)[C@H](C)CC[C@]4(C)CC[C@]23C)[C@@]1(C)C(=O)O` has an inhibition at 10 µM (PBMC [1]) of 64%, an inhibition in vivo at 10 mg/kg (Mus musculus [3]) of 30.7% and an inhibition in vivo at 10 mg/kg (Mus musculus [4]) of 44.1%. The inhibition at 10 µM (PBMC [2]) was 44.7% and the viability at 48 h, 10 µM [5] was 85%.
In the case of `CCCCCC(=O)O[C@H]1CC[C@@]2(C)[C@@H](CC[C@]3(C)[C@@H]2CC=C2[C@@H]4[C@@H](C)[C@H](C)CC[C@]4(C)CC[C@]23C)[C@@]1(C)C(=O)O`, the inhibition at 10 µM (PBMC [1]) is reported as 53.4%, the inhibition in vivo at 10 mg/kg (Mus musculus [3]) is reported as 59.3% and the inhibition in vivo at 10 mg/kg (Mus musculus [4]) is reported as 41.6%. The inhibition at 10 µM (PBMC [2]) was 42.5% and the viability at 48 h, 10 µM [5] was 97%.
With `CCCCCC(=O)O[C@@H]1CC[C@@]2(C)[C@@H](CC[C@]3(C)[C@@H]2CC=C2[C@@H]4[C@@H](C)[C@H](C)CC[C@]4(C)CC[C@]23C)[C@@]1(C)C(=O)O` the inhibition at 10 µM (PBMC [1]) was 50.5%, the inhibition in vivo at 10 mg/kg (Mus musculus [3]) was 42.5% and the inhibition in vivo at 10 mg/kg (Mus musculus [4]) was 57.5%. The inhibition at 10 µM (PBMC [2]) was 72.3% and the viability at 48 h, 10 µM [5] was 89%.
Compound `CCCCCC(=O)O[C@@H]1CC[C@@]2(C)[C@@H](CC[C@]3(C)[C@@H]2C(=O)C=C2[C@@H]4[C@@H](C)[C@H](C)CC[C@]4(C)CC[C@]23C)[C@@]1(C)C(=O)O` has an inhibition at 10 µM (PBMC [1]) of 13.8% and an inhibition at 10 µM (PBMC [2]) of 18.3%.
For `C[C@H]1[C@H](C)CC[C@]2(C)CC[C@]3(C)C(=CC[C@@H]4[C@@]5(C)CC[C@H](O)[C@](C)(C(=O)O)[C@@H]5CC[C@]43C)[C@H]12`, the inhibition at 10 µM (PBMC [1]) was 42.3% and the inhibition at 10 µM (PBMC [2]) was 41.4%.
`CC(=O)O[C@@H]1CC[C@@]2(C)[C@@H](CC[C@]3(C)[C@@H]2C(=O)C=C2[C@@H]4[C@@H](C)[C@H](C)CC[C@]4(C)CC[C@]23C)[C@@]1(C)N=C=O` showed an inhibition at 10 µM (PBMC [1]) of 69.8%, an inhibition in vivo at 10 mg/kg (Mus musculus [3]) of 26.4% and an inhibition in vivo at 10 mg/kg (Mus musculus [4]) of 40.2%. The inhibition at 10 µM (PBMC [2]) was 40.6% and the viability at 48 h, 10 µM [5] was 91%.
`C[C@H]1[C@H](C)CC[C@]2(C)CC[C@]3(C)C(=CC(=O)[C@@H]4[C@@]5(C)CC[C@@H](O)[C@](C)(C(=O)O)[C@@H]5CC[C@]43C)[C@H]12` [11-KETO BOSWELLIC ACID] gave an inhibition at 10 µM (PBMC [1]) of 59.6%, an inhibition in vivo at 10 mg/kg (Mus musculus [3]) of 58.7% and an inhibition in vivo at 10 mg/kg (Mus musculus [4]) of 61.6%. It also gave an inhibition at 10 µM (PBMC [2]) of 56.3% and a viability at 48 h, 10 µM [5] of 86%.
With `CC(=O)O[C@@H]1CC[C@@]2(C)[C@@H](CC[C@]3(C)[C@@H]2C(=O)C=C2[C@@H]4[C@@H](C)[C@H](C)CC[C@]4(C)CC[C@]23C)[C@@]1(C)C(=O)O` [AKBA] the inhibition at 10 µM (PBMC [1]) was 53.9%, the inhibition in vivo at 10 mg/kg (Mus musculus [3]) was 70.7% and the inhibition in vivo at 10 mg/kg (Mus musculus [4]) was 54.3%. For the same compound, the inhibition at 10 µM (PBMC [2]) was 55% and the viability at 48 h, 10 µM [5] was 100%.
`C[C@H]1[C@H](C)CC[C@]2(C)CC[C@]3(C)C(=CC[C@@H]4[C@@]5(C)CC[C@@H](O)[C@](C)(C(=O)O)[C@@H]5CC[C@]43C)[C@H]12` [BOSWELLIC ACID] gave an inhibition at 10 µM (PBMC [1]) of 48.6%, an inhibition in vivo at 10 mg/kg (Mus musculus [3]) of 50.8% and an inhibition in vivo at 10 mg/kg (Mus musculus [4]) of 53%. For the same compound, the inhibition at 10 µM (PBMC [2]) was 44.5% and the viability at 48 h, 10 µM [5] was 73%.
`COc1ccc(C2CNC(=O)C2)cc1OC1CCCC1` (centres undefined) [ROLIPRAM] showed an inhibition at 10 µM (PBMC [1]) of 26.2%, an inhibition in vivo at 10 mg/kg (Mus musculus [3]) of 48.1% and an inhibition in vivo at 10 mg/kg (Mus musculus [4]) of 36.9%. For the same compound, the inhibition at 10 µM (PBMC [2]) was 34.6%.
